Literature values, collected in patent US8247348B1, “Method of preserving cut plant material” (priority 2007, dated 2012).

OCCO [Ethylene glycol]
amount that can be lethal (humans; adults, as little as (2 tablespoons)): 30 milliliters
estimated LD100 (humans; in humans): approximately 1.4 ml/kg

O=C([O-])c1ccccc1.[Na+] [Sodium benzoate]
type of antifungal action (fungi): fungistatic not fungicidal
pH at which effective (fungi; effective only in acidic conditions): < 4.5
